From patent US11944111B2, “Stabilizing sorbic acid in beverage syrup” (PepsiCo, Inc., priority 2015, dated 2024)
Like-named read-outs stand apart in the source and are kept apart here.

Columns and labels:
[1] = UV-vis 263 nm, saturated solution
Text: According to the Lambert-Beer Law, the concentration of sorbic acid is proportional to absorption intensity (Abs(Intesity)=K [Sorbic Acid]).

[2] = cited from earlier work
[3] = aqueous solution, pH between 2.5 and 4, about 20 C

SMILES | Abs (pH 2.5) ([1]; aged at 40 F. 0 day) | Abs (pH 2.5) ([1]; aged at 40 F. 7 days) | Abs (pH 3.0) ([1]; aged at 40 F. 7 days) | Stability (crystals) (aged at 40 F. 0 day) | Stability (crystals) (aged at 40 F. 7 days) | solubility of sorbic acid in high acid syrup ([2]; 60% brix syrup) | sorbate concentration at which sorbic acid precipitation begins [2, 3] | sorbate concentration at which the tendency to precipitate is clear [2, 3]
C/C=C/C=C/C(=O)[O-].[K+] [Potassium Sorbate] | 1.644 | 1.357 | 1.24 | no crystals | lot of crystals |  |  | 
C/C=C/C=C/C(=O)O [sorbic acid] |  |  |  |  |  | 0.08% | about 500 ppm | 1300 ppm
